Measurements reported in US8648079B2, “Heterocyclic compounds” (Takeda Pharmaceutical Company Limited, priority 2011, dated 2014).

target: T1, human CH24H (Homo sapiens, UniProt Q9Y6A2); assay: Measurement of CH24H inhibitory activity (24-HC produced from [14C] cholesterol by human CH24H lysate); assay type: biochemical; settings: 1 μM test compound, [14C] cholesterol 15 μM, 37° C., 5 hr, read-out: Inhibitory rate (%) at 1 μM
T1 construct: Using Full-Length Mammalian Gene Collection No. 4819975 (Invitrogen) as a template; made in house; host or cells: FreeStyle 293-F cells (transient transfection with pcDNA3.1(+)/hCH24H); crude lysate supernatant
Procedure: The expression of human CH24H was performed using FreeStyle 293 Expression System (Invitrogen). According to the manual attached to FreeStyle 293 Expression System and using the plasmid DNA (pcDNA3.1(+)/hCH24H) for human CH24H expression constructed in Experimental Example 1, a transient expression using FreeStyle 293-F cell was performed. After transfection, the cells were cultured with shaking at 37° C., 8% CO2, 125 rpm for 2 days. The cells were collected by centrifugation, and suspended in a buffer for suspension (100 mM potassium phosphate (pH 7.4), 0.1 mM EDTA, 1 mM DTT, 20% Glycerol). The suspended product was disrupted by a polytron homogenizer (manufactured by Kinematica), and centrifuged at 9000×g for 10 min, and the supernatant was collected. The collected supernatant was cryopreserved (−80° C.) as a human CH24H lysate standard product.
For the measurement of CH24H inhibitory activity, using the human CH24H lysate prepared in Experimental Example 2, the amount of 24-HC produced from cholesterol by catalysis of CH24H was measured in the presence of a test compound, and the amount was compared with that in the absence of the test compound. That is, a test compound solution at various concentrations were mixed with a reaction buffer (50 mM potassium phosphate containing 0.1% BSA and Complete, EDTA-free protease inhibitor cocktail, pH 7.4) and human CH24H lysate. Then, [^14C] cholesterol (53 mCi/mmol specific activity, 15 μM) was added, and CH24H reaction was performed at 37° C. for 5 hr. After completion of the reaction, a quenching solution consisting of chloroform/methanol/distillation water (2:2:1 v/v) was added, and the resulting 24-HC was extracted by shaking. The extract was applied to silica gel thin layer chromatography (ethyl acetate:toluene=4:6), and the obtained ^14C-24HC fraction was measured with BAS2500 (Fujifilm Corporation).
The inhibitory rate (%) was calculated from the ratio of radioactivity in the presence of a test compound relative to the radioactivity in the absence of the test compound.

T1 sequence (Q9Y6A2 whole entry): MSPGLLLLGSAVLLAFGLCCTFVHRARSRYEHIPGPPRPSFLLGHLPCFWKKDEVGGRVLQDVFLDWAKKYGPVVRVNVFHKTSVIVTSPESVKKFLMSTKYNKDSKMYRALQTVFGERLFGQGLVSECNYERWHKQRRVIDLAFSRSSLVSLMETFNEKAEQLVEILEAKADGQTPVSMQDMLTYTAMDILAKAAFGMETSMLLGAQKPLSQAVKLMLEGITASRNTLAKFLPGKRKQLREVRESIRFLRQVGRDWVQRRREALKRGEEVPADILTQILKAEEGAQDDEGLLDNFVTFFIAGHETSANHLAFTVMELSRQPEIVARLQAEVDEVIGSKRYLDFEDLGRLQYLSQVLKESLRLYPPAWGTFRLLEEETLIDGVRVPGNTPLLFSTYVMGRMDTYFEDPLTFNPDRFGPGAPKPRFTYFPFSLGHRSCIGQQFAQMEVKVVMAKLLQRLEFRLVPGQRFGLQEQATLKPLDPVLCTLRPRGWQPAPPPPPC

SMILES | inhibition at 1 µM [%]
Cc1ccc(-c2ccncc2)c(C(=O)N2CCC(O)(Cc3ccccc3)CC2)c1 [Example 1, (4-benzyl-4-hydroxypiperidin-1-yl)(5-methyl-2-(pyridin-4-yl)phenyl)methanone] | 92
Cc1noc(-c2ccncc2)c1C(=O)N1CCC(O)(Cc2ccccc2)CC1 [Example 2, (4-benzyl-4-hydroxypiperidin-1-yl)(3-methyl-5-(pyridin-4-yl)-1,2-oxazol-4-yl)methanone] | 90
Cc1ccc(-c2ccncc2)c(C(=O)N2CCC(O)(C(C)C)CC2)c1 [Example 5, (4-hydroxy-4-isopropylpiperidin-1-yl)(5-methyl-2-(pyridin-4-yl)phenyl)methanone] | 70
O=C(c1c(-c2ccncc2)ccc2c1OCO2)N1CCC(O)(Cc2ccccc2)CC1 [Example 9, (4-benzyl-4-hydroxypiperidin-1-yl)(5-(pyridin-4-yl)-1,3-benzodioxol-4-yl)methanone] | 87
O=C(c1ccccc1-c1ccncn1)N1CCC(O)(Cc2ccccc2)CC1 [Example 14, (4-benzyl-4-hydroxypiperidin-1-yl)(2-(pyrimidin-4-yl)phenyl)methanone] | 92
O=C(c1ncsc1-c1ccncc1)N1CCC(O)(Cc2ccccc2)CC1 [Example 25, (4-benzyl-4-hydroxypiperidin-1-yl)(5-(pyridin-4-yl)-1,3-thiazol-4 yl)methanone] | 94
O=C(c1scnc1-c1ccncc1)N1CCC(O)(Cc2ccccc2)CC1 [Example 26, (4-benzyl-4-hydroxypiperidin-1-yl)(4-(pyridin-4-yl)-1,3-thiazol-5-yl)methanone] | 92
O=C(c1ccc(F)cc1-c1ccncc1)N1CCC(O)(Cc2ccccn2)CC1 [Example 30, (4-fluoro-2-(pyridin-4-yl)phenyl)(4-hydroxy-4-(pyridin-2-ylmethyl)piperidin-1-yl)methanone] | 91
Cn1ncc(-c2ccncc2)c1C(=O)N1CCC(O)(Cc2ccccc2)CC1 [Example 32, (4-benzyl-4-hydroxypiperidin-1-yl)(1-methyl-4-(pyridin-4-yl)-1H-pyrazol-5-yl)methanone] | 92
O=C(c1ccccc1-c1ccncn1)N1CCC(O)(Cc2ccccn2)CC1 [Example 34, (4-hydroxy-4-(pyridin-2-ylmethyl)piperidin-1-yl)(2-(pyrimidin-4-yl)phenyl)methanone] | 90
Cc1ccc(-c2ccncc2)c(C(=O)N2CCC(O)(CC3=NCCS3)CC2)c1 [Example 39, (4-(4,5-dihydro-1,3-thiazol-2-ylmethyl)-4-hydroxypiperidin-1-yl)(5-methyl-2-(pyridin-4-yl)phenyl)methanone] | 90
O=C(c1c(C(F)(F)F)n[nH]c1-c1ccncc1)N1CCC(O)(Cc2ccccc2)CC1 [Example 41, (4-benzyl-4-hydroxypiperidin-1-yl)(5-(pyridin-4-yl)-3-(trifluoromethyl)-1H-pyrazol-4-yl)methanone] | 93
O=C(c1cccnc1-c1ccncc1)N1CCC(O)(Cc2ccccc2)CC1 [Example 44, (4-benzyl-4-hydroxypiperidin-1-yl)(2,4′-bipyridin-3-yl)methanone] | 95
O=C(c1cccnc1-c1ccncn1)N1CCC(O)(Cc2ccccc2)CC1 [Example 54, (4-benzyl-4-hydroxypiperidin-1-yl)(2-(pyrimidin-4-yl)pyridin-3-yl)methanone] | 90
O=C(c1cc(F)c(F)cc1-c1ccncn1)N1CCC(O)(Cc2ccccn2)CC1 [Example 56, (4,5-difluoro-2-(pyrimidin-4-yl)phenyl)(4-hydroxy-4-(pyridin-2-ylmethyl)piperidin-1-yl)methanone] | 90
O=C(c1cc(F)ccc1-c1ccncn1)N1CCC(O)(Cc2ccccn2)CC1 [Example 58, (5-fluoro-2-(pyrimidin-4-yl)phenyl)(4-hydroxy-4-(pyridin-2-ylmethyl)piperidin-1-yl)methanone] | 84
COC1(Cc2ccccc2)CCN(C(=O)c2cc(C)ccc2-c2ccncc2)CC1 [Example 59, (4-benzyl-4-methoxypiperidin-1-yl)(5-methyl-2-(pyridin-4-yl)phenyl)methanone] | 83
Cc1nc(-c2ccncn2)c(C(=O)N2CCC(O)(Cc3ccccc3)CC2)s1 [Example 60, (4-benzyl-4-hydroxypiperidin-1-yl)(2-methyl-4-(pyrimidin-4-yl)-1,3-thiazol-5-yl)methanone] | 82

Second part, the compound after the results:

inhibition at 1 µM [%] | SMILES
82 | O=C(c1ccc(F)cc1-c1ccncn1)N1CCC(O)(Cc2ccccn2)CC1 [Example 63, (4-fluoro-2-(pyrimidin-4-yl)phenyl)(4-hydroxy-4-(pyridin-2-ylmethyl)piperidin-1-yl)methanone]
89 | O=C(c1cccnc1-c1ccncc1)N1CCC(O)(Cc2ccc(F)cc2)CC1 [Example 67, 2,4′-bipyridin-3-yl(4-(4-fluorobenzyl)-4-hydroxypiperidin-1-yl)methanone]
89 | N#Cc1ccc(CC2(O)CCN(C(=O)c3cccnc3-c3ccncc3)CC2)cc1 [Example 70, 4-((1-(2,4′-bipyridin-3-ylcarbonyl)-4-hydroxypiperidin-4-yl)methyl)benzonitrile]
87 | O=C(c1ccccc1-c1cnco1)N1CCC(O)(Cc2ccccc2)CC1 [Example 82, (4-benzyl-4-hydroxypiperidin-1-yl)(2-(1,3-oxazol-5-yl)phenyl)methanone]
89 | O=C(c1cccnc1-c1ccncc1)N1CCC(O)(Cc2ccc(F)c(F)c2)CC1 [Example 86, 2,4′-bipyridin-3-yl(4-(3,4-difluorobenzyl)-4-hydroxypiperidin-1-yl)methanone]
89 | O=C(c1cccnc1-c1ccncc1)N1CCC(O)(Cc2ccc(F)cc2F)CC1 [Example 87, 2,4′-bipyridin-3-yl(4-(2,4-difluorobenzyl)-4-hydroxypiperidin-1-yl)methanone]
88 | O=C(c1cccnc1-c1ccncn1)N1CCC(O)(Cc2ccc(F)cc2)CC1 [Example 92, (4-(4-fluorobenzyl)-4-hydroxypiperidin-1-yl)(2-(pyrimidin-4-yl)pyridin-3-yl)methanone]
87 | COc1ccc(CC2(O)CCN(C(=O)c3cccnc3-c3ccncc3)CC2)cc1 [Example 97, 2,4′-bipyridin-3-yl(4-hydroxy-4-(4-methoxybenzyl)piperidin-1-yl)methanone]
89 | O=C(c1ccccc1-c1cnco1)N1CCC(O)(Cc2ccc(F)cc2F)CC1 [Example 102, (4-(2,4-difluorobenzyl)-4-hydroxypiperidin-1-yl)(2-(1,3-oxazol-5-yl)phenyl)methanone]
95 | O=C(c1cccnc1-c1ccncn1)N1CCC(O)(Cc2ccc(F)cc2F)CC1 [Example 105, (4-(2,4-difluorobenzyl)-4-hydroxypiperidin-1-yl)(2-(pyrimidin-4-yl)pyridin-3-yl)methanone]

tested on: APP/PS1 double transgenic mouse; assay: Y-maze test using APP/PS1 double transgenic mouse (spontaneous alternation behavior); assay type: in vivo; settings: 10 mg/kg orally once a day, Y-maze at 16 hours after the 13th administration
Procedure: Animals used were 3-month-old female APP/PS1 double transgenic mice (10-15 mice/group). A test compound was suspended in a 0.5% aqueous methylcellulose [133-14255 WAKO] solution (1 mg/mL). The body weight of the mice was measured, and the solution was forcibly administered orally and repeatedly once a day for 14 days. At 16 hours after the 13th administration, spontaneous alternation behavior in Y-maze test was evaluated. Using a particular arm of a Y-shaped test apparatus as the starting point, the frequency of moving to a different arm was counted for 5 min. The first two times of entry were excluded from the total number of entry. In addition, the mice that entered less than 10 times in total were excluded. Movement to an arm different from the arm into which the mouse entered last but one was considered an alternation behavior, and the ratio to the total number of moving was calculated as a spontaneous alternation behavior rate. As comparison subjects, a control group (test compound-non treatment group) and a control group in wild-type mice were used.

SMILES | Spontaneous alternation behavior rate (%)
O=C(c1cccnc1-c1ccncc1)N1CCC(O)(Cc2ccccc2)CC1 [Example 44, (4-benzyl-4-hydroxypiperidin-1-yl)(2,4′-bipyridin-3-yl)methanone] | 71
O=C(c1cccnc1-c1ccncn1)N1CCC(O)(Cc2ccc(F)cc2)CC1 [Example 92, (4-(4-fluorobenzyl)-4-hydroxypiperidin-1-yl)(2-(pyrimidin-4-yl)pyridin-3-yl)methanone] | 62

same assay, conditions: 30 mg/kg orally once a day, Y-maze at 16 hours after the 13th administration

SMILES | Spontaneous alternation behavior rate (%)
O=C(c1cccnc1-c1ccncc1)N1CCC(O)(Cc2ccccc2)CC1 [Example 44, (4-benzyl-4-hydroxypiperidin-1-yl)(2,4′-bipyridin-3-yl)methanone] | 71
O=C(c1cccnc1-c1ccncn1)N1CCC(O)(Cc2ccc(F)cc2)CC1 [Example 92, (4-(4-fluorobenzyl)-4-hydroxypiperidin-1-yl)(2-(pyrimidin-4-yl)pyridin-3-yl)methanone] | 72
